Results as given in patent US6737383B1, “Herbicidal oxadiazolidines” (priority 1999, dated 2004).

Experiments:
cocklebur = assay: Test B pre/postemergence cocklebur; format: in vivo, Xanthium strumarium
In short: (§1)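 Herbicidal effect was estimated by eye on a ten-point control scale after plants spent twelve to sixteen days in a greenhouse following soil or foliar treatment. Foliar sprays targeted plants at one to four leaves; all doses were formulated in a non-phytotoxic solvent with surfactant.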

wheat = assay: Test B pre/postemergence wheat; format: in vivo, Triticum aestivum
In short: as §1

bedstraw = assay: Test B pre/postemergence bedstraw; format: in vivo, Galium aparine
In short: as §1

blackgrass = assay: Test B pre/postemergence blackgrass; format: in vivo, Alopecurus myosuroides
In short: as §1

morningglory = assay: Test B pre/postemergence morningglory; format: in vivo, Ipomoea hederacea
In short: as §1

smallflower flatsedge = assay: Test B flood test smallflower flatsedge; format: in vivo, Cyperus difformis
In short: (§2)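 Each value is a visual injury score relative to controls, with 10 meaning complete control and 0 no effect. Evaluation took place twelve to sixteen days after the 2-leaf-stage plants were treated and kept in the greenhouse.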

bamyardgrass = assay: Test B flood test barnyardgrass; format: in vivo, Echinochloa crus-galli
In short: as §2

rice = assay: Test B flood test rice; format: in vivo, Oryza sativa
In short: as §2

purple nutsedge = assay: Test B pre/postemergence purple nutsedge; format: in vivo, Cyperus rotundus
In short: as §1

giant foxtail = assay: Test B pre/postemergence giant foxtail; format: in vivo, Setaria faberii
In short: as §1

soybean = assay: Test B pre/postemergence soybean; format: in vivo, Glycine max
In short: as §1

pigweed = assay: Test B pre/postemergence pigweed; format: in vivo, Amaranthus retroflexus
In short: as §1

surinam grass = assay: Test B pre/postemergence surinam grass; format: in vivo, Brachiaria decumbens
In short: as §1

wild oat = assay: Test B pre/postemergence wild oat; format: in vivo, Avena fatua
In short: as §1

velvetleaf = assay: Test B pre/postemergence velvetleaf; format: in vivo, Abutilon theophrasti
In short: as §1

crabgrass = assay: Test B pre/postemergence crabgrass; format: in vivo, Digitaria sanguinalis
In short: as §1

[1] = Preemergence, Rate 62 g/ha, scale of 0 to 10 where 0 is no effect and 10 is complete control
[2] = Preemergence, Rate 250 g/ha, scale of 0 to 10 where 0 is no effect and 10 is complete control
[3] = Preemergence, Rate 500 g/ha, scale of 0 to 10 where 0 is no effect and 10 is complete control
[4] = Rate 62 g/ha, Postemergence, scale 0 to 10, 0 no effect, 10 complete control
[5] = Rate 125 g/ha, Postemergence, scale of 0 to 10 where 0 is no effect and 10 is complete control
[6] = Rate 250 g/ha, Postemergence, scale of 0 to 10 where 0 is no effect and 10 is complete control
[7] = Rate 500 g/ha, Postemergence, scale 0 to 10, 0 no effect, 10 complete control
[8] = Rate 62 g/ha, headed Pre-emergence (flood test species), scale 0 to 10 (0 no effect, 10 complete control)
[9] = Rate 125 g/ha, Pre-emergence, flood test species, scale 0 to 10 where 0 is no effect and 10 is complete control
[10] = Rate 250 g/ha, Pre-emergence, flood-test species, scale 0 to 10, 0 is no effect, 10 is complete control
[11] = Rate 500 g/ha, Pre-emergence, flood test species, scale 0 to 10 (0 no effect, 10 complete control)

SMILES: CC(C)N(C(=O)n1oc(=O)n(C2CC2)c1=O)c1ccc(F)cc1F [Compound 299]
- Cocklebur plant response rating (cocklebur; [1]): 0
- Cocklebur plant response rating (0 to 10 scale) (cocklebur; Preemergence, Rate 125 g/ha): 0
- Cocklebur plant response rating (cocklebur; [2]): 0
- Cocklebur plant response rating (cocklebur; [3]): 0
- Cocklebur plant response rating (cocklebur; [4]): 0
- Cocklebur plant response rating (cocklebur; [5]): 2
- Plant response rating, Cocklebur (cocklebur; [6]): 4
- Cocklebur plant response rating (cocklebur; [7]): 5
- Wheat plant response rating (wheat; [1]): 3
- Wheat plant response rating (0 to 10 scale) (wheat; Preemergence, Rate 125 g/ha): 7
- Wheat plant response rating (wheat; [2]): 8
- Wheat plant response rating (wheat; [3]): 8
- Wheat plant response rating (wheat; [4]): 0
- Wheat plant response rating (wheat; [5]): 3
- Plant response rating, Wheat (wheat; [6]): 6
- Bedstraw plant response rating (bedstraw; [1]): 10
- Bedstraw plant response rating (0 to 10 scale) (bedstraw; Preemergence, Rate 125 g/ha): 10
- Bedstraw plant response rating (bedstraw; [2]): 10
- Bedstraw plant response rating (bedstraw; [3]): 10
- Bedstraw plant response rating (bedstraw; [4]): 2
- Bedstraw plant response rating (bedstraw; [5]): 7
- Blackgrass plant response rating (blackgrass; [1]): 9
- Blackgrass plant response rating (0 to 10 scale) (blackgrass; Preemergence, Rate 125 g/ha): 10
- Blackgrass plant response rating (blackgrass; [2]): 10
- Blackgrass plant response rating (blackgrass; [3]): 10
- Blackgrass plant response rating (blackgrass; [4]): 7
- Blackgrass plant response rating (blackgrass; [5]): 8
- Plant response rating, Blackgrass (blackgrass; [6]): 8
- Blackgrass plant response rating (blackgrass; [7]): 9
- Morningglory plant response rating (morningglory; [1]): 0
- Morningglory plant response rating (0 to 10 scale) (morningglory; Preemergence, Rate 125 g/ha): 2
- Morningglory plant response rating (morningglory; [2]): 6
- Morningglory plant response rating (morningglory; [3]): 7
- Morningglory plant response rating (morningglory; [4]): 3
- Morningglory plant response rating (morningglory; [5]): 5
- Plant response rating, Morningglory (morningglory; [6]): 6
- S. Flatsedge plant response rating (smallflower flatsedge; [8]): 0
- S. Flatsedge plant response rating (smallflower flatsedge; [9]): 0
- S. Flatsedge plant response rating (smallflower flatsedge; [10]): 0
- S. Flatsedge plant response rating (smallflower flatsedge; [11]): 0
- Barnyardgrass plant response rating (bamyardgrass; [8]): 0
- Barnyardgrass plant response rating (bamyardgrass; [9]): 2
- Barnyardgrass plant response rating (bamyardgrass; [10]): 6
- Barnyardgrass plant response rating (bamyardgrass; [11]): 9
- Rice plant response rating (rice; [8]): 0
- Rice plant response rating (rice; [9]): 0
- Rice plant response rating (rice; [10]): 0
- Rice plant response rating (rice; [11]): 0
- Nutsedge plant response rating (purple nutsedge; [1]): 0
- Nutsedge plant response rating (0 to 10 scale) (purple nutsedge; Preemergence, Rate 125 g/ha): 0
- Nutsedge plant response rating (purple nutsedge; [4]): 0
- Nutsedge plant response rating (purple nutsedge; [5]): 0
- Plant response rating, Nutsedge (purple nutsedge; [6]): 0
- Giant foxtail plant response rating (giant foxtail; [1]): 9
- Giant foxtail plant response rating (0 to 10 scale) (giant foxtail; Preemergence, Rate 125 g/ha): 10
- Giant foxtail plant response rating (giant foxtail; [2]): 10
- Giant foxtail plant response rating (giant foxtail; [3]): 10
- Giant foxtail plant response rating (giant foxtail; [4]): 7
- Giant foxtail plant response rating (giant foxtail; [5]): 7
- Plant response rating, Giant foxtail (giant foxtail; [6]): 8
- Soybean plant response rating (soybean; [1]): 0
- Soybean plant response rating (0 to 10 scale) (soybean; Preemergence, Rate 125 g/ha): 0
- Soybean plant response rating (soybean; [2]): 6
- Soybean plant response rating (soybean; [3]): 7
- Soybean plant response rating (soybean; [5]): 6
- Plant response rating, Soybean (soybean; [6]): 6
- Redroot pigweed plant response rating (pigweed; [1]): 9
- Redroot pigweed plant response rating (0 to 10 scale) (pigweed; Preemergence, Rate 125 g/ha): 10
- Redroot pigweed plant response rating (pigweed; [2]): 10
- Redroot pigweed plant response rating (pigweed; [3]): 10
- Redroot pigweed plant response rating (pigweed; [4]): 2
- Redroot pigweed plant response rating (pigweed; [5]): 3
- Plant response rating, Redroot pigweed (pigweed; [6]): 6
- B. signalgrass plant response rating (surinam grass; [1]): 6
- B. signalgrass plant response rating (0 to 10 scale, 0 is no effect, 10 is complete control) (surinam grass; Preemergence, Rate 125 g/ha): 9
- B. signalgrass plant response rating (surinam grass; [2]): 9
- B. signalgrass plant response rating (surinam grass; [3]): 10
- B. signalgrass plant response rating (surinam grass; [4]): 0
- B. signalgrass plant response rating (surinam grass; [5]): 3
- Plant response rating, B. signalgrass (surinam grass; [6]): 7
- B. signalgrass plant response rating (surinam grass; [7]): 8
- Wild oats plant response rating (wild oat; [1]): 2
- Wild oats plant response rating (0 to 10 scale) (wild oat; Preemergence, Rate 125 g/ha): 7
- Wild oats plant response rating (wild oat; [2]): 8
- Wild oats plant response rating (wild oat; [3]): 8
- Wild oats plant response rating (wild oat; [4]): 0
- Wild oats plant response rating (wild oat; [5]): 0
- Plant response rating, Wild oats (wild oat; [6]): 3
- Velvetleaf plant response rating (velvetleaf; [1]): 6
- Velvetleaf plant response rating (0 to 10 scale) (velvetleaf; Preemergence, Rate 125 g/ha): 7
- Velvetleaf plant response rating (velvetleaf; [2]): 8
- Velvetleaf plant response rating (velvetleaf; [3]): 8
- Velvetleaf plant response rating (velvetleaf; [4]): 0
- Velvetleaf plant response rating (velvetleaf; [5]): 0
- Plant response rating, Velvetleaf (velvetleaf; [6]): 6
- Crabgrass plant response rating (crabgrass; [1]): 6
- Crabgrass plant response rating (0 to 10 scale) (crabgrass; Preemergence, Rate 125 g/ha): 9
- Crabgrass plant response rating (crabgrass; [2]): 9
- Crabgrass plant response rating (crabgrass; [3]): 9
- Crabgrass plant response rating (crabgrass; [4]): 0
- Crabgrass plant response rating (crabgrass; [5]): 3
- Plant response rating, Crabgrass (crabgrass; [6]): 4
